Data as given in patent US11267825B2 (AICURIS GMBH & CO. KG, priority 2017, dated 2022).
Where two headings read alike, the source gives them in different places.

Experiments:
[1] = target: HBV core protein (UniProt P03146); type: biochemical; settings: read-out: Assembly Activity (IC50); BODIPY-FL labelled core protein, assembly started with NaCl, read after 6 min
Procedure, shortened: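 Compounds tested at 8 concentrations in 0.5-log steps from 100, 31.6 or 10 μM against 1.0–2.0 μM BODIPY-FL-labelled Cys150 core dimers (residues 1–149), 50 mM HEPES pH 7.5. NaCl ([…] final) triggered assembly; quenching read at 6 min, 477/525 nm, with 2.5 M and 0 M NaCl as controls; EC50 by nonlinear fit.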

[2] = system: HBV; assay: Determination of HBV DNA from the supernatants of HepAD38 cells (anti-HBV activity); type: cell-based, hepatitis B virus; settings: Hepatitis B virus, read-out: Cell Activity (EC50)
Procedure, shortened: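 EC50 values were obtained by non-linear regression of HBV DNA copy numbers measured by qPCR against pCH-9/3091 plasmid standards. The DNA came from filtered supernatants collected on day 6. Before that, tetracycline-withdrawn HepAD38 cells had been exposed to serial half-log compound dilutions, with tetracycline-treated cells as the non-producing control.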

[3] = 144 h, HBV DNA in HepAD38 supernatant at day 6

HBV core protein, sequence (P03146 whole entry, looked up, the tested form may be a part): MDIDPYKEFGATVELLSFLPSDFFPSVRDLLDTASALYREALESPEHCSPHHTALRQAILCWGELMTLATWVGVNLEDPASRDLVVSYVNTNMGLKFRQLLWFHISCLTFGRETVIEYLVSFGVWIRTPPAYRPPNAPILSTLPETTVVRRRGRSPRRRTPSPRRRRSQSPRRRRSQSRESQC

Compound | IC50 [1] | EC50 [2, 3] | EC50 ([2]; HePAD38, 144 h)
Nc1nc2c(s1)CN(C(=O)c1cc3c(C4CC4)cccc3[nH]1)CC2 [Example 82, 5-(4-cyclopropyl-1H-indole-2-carbonyl)-4H,5H,6H,7H-[1,3]thiazolo[5,4-c]pyridin-2-amine] | 5 to 10 µM | 1 to 10 µM | 
N#Cc1cccc2[nH]c(C(=O)N3CCc4nc(N)sc4C3)cc12 [Example 83, 5-(4-cyano-1H-indole-2-carbonyl)-4H,5H,6H,7H-[1,3]thiazolo[5,4-c]pyridin-2-amine] | < 5 µM | 1 to 10 µM | 
Nc1nc2c(s1)CN(C(=O)c1cc3c(F)cc(F)c(F)c3[nH]1)CC2 [Example 84, 5-(4,6,7-trifluoro-1H-indole-2-carbonyl)-4H,5H,6H,7H-[1,3]thiazolo[5,4-c]pyridin-2-amine] | < 5 µM | < 1 µM | 
Nc1nc2c(s1)CN(C(=O)c1cc3c(Cl)ccc(F)c3[nH]1)CC2 [Example 85, 5-(4-chloro-7-fluoro-1H-indole-2-carbonyl)-4H,5H,6H,7H-[1,3]thiazolo[5,4-c]pyridin-2-amine] | < 5 µM | < 1 µM | 
Cc1ccc(F)c2[nH]c(C(=O)N3CCc4nc(N)sc4C3)cc12 [Example 86, 5-(7-fluoro-4-methyl-1H-indole-2-carbonyl)-4H,5H,6H,7H-[1,3]thiazolo[5,4-c]pyridin-2-amine] | < 5 µM | < 1 µM | 
O=C(c1cc2ccccc2[nH]1)N1CCc2nc(NCC3(CO)CC3)sc2C1 [Example 87, [1-({[5-(1H-indole-2-carbonyl)-4H,5H,6H,7H-[1,3]thiazolo[5,4-c]pyridin-2-yl]amino}methyl)cyclopropyl]methanol] | < 5 µM | < 1 µM | 
Cc1cccc2[nH]c(C(=O)N3CCc4nc(N(C)C)sc4C3)cc12 [Example 88, N,N-dimethyl-5-(4-methyl-1H-indole-2-carbonyl)-4H,5H,6H,7H-[1,3]thiazolo[5,4-c]pyridin-2-amine] | < 100 µM | 1 to 10 µM | 
CS(=O)(=O)CCNc1nc2c(s1)CN(C(=O)c1cc3ccccc3[nH]1)CC2 [Example 89, 5-(1H-indole-2-carbonyl)-N-(2-methanesulfonylethyl)-4H,5H,6H,7H-[1,3]thiazolo[5,4-c]pyridin-2-amine] | < 5 µM | < 1 µM | 
Nc1nc2c(s1)CN(C(=O)c1cc3c(Br)ccc(F)c3[nH]1)CC2 [Example 90, 5-(4-bromo-7-fluoro-1H-indole-2-carbonyl)-4H,5H,6H,7H-[1,3]thiazolo[5,4-c]pyridin-2-amine] | < 5 µM | < 1 µM | 
O=C(c1cc2ccccc2[nH]1)N1CCc2nc(NCC3CCOC3)sc2C1 (stereo not shown) [Example 91, 5-(1H-indole-2-carbonyl)-N-[(oxolan-3-yl)methyl]-4H,5H,6H,7H-[1,3]thiazolo[5,4-c]pyridin-2-amine] | < 5 µM |  | < 1 µM
Nc1nc2c(s1)CN(C(=O)c1cc3ccc(Br)cc3[nH]1)CC2 [Example 92, 5-(6-bromo-1H-indole-2-carbonyl)-4H,5H,6H,7H-[1,3]thiazolo[5,4-c]pyridin-2-amine] | < 5 µM | < 1 µM | 
Nc1nc2c(s1)CN(C(=O)c1cc3c(Br)ccc(O)c3[nH]1)CC2 [Example 93, 2-{2-amino-4H,5H,6H,7H-[1,3]thiazolo[5,4-c]pyridine-5-carbonyl}-4-bromo-1H-indol-7-ol] | < 100 µM | < 100 µM | 
CC(C)(O)CNc1nc2c(s1)CN(C(=O)c1cc3ccccc3[nH]1)CC2 [Example 95, 1-{[5-(1H-indole-2-carbonyl)-4H,5H,6H,7H-[1,3]thiazolo[5,4-c]pyridin-2-yl]amino}-2-methylpropan-2-ol] | < 5 µM | < 1 µM | 
O=C(c1cc2ccccc2[nH]1)N1CCc2nc(NCC3CC3)sc2C1 [Example 96, N-(cyclopropylmethyl)-5-(1H-indole-2-carbonyl)-4H,5H,6H,7H-[1,3]thiazolo[5,4-c]pyridin-2-amine] | < 5 µM | < 1 µM | 
COCCNc1nc2c(s1)CN(C(=O)c1cc3ccccc3[nH]1)CC2 [Example 97, 5-(1H-indole-2-carbonyl)-N-(2-methoxyethyl)-4H,5H,6H,7H-[1,3]thiazolo[5,4-c]pyridin-2-amine] | < 5 µM | < 1 µM | 
Nc1nc2c(s1)CN(C(=O)c1cc3cccc(O)c3[nH]1)CC2 [Example 98, 2-{2-amino-4H,5H,6H,7H-[1,3]thiazolo[5,4-c]pyridine-5-carbonyl}-1H-indol-7-ol] | < 100 µM | < 100 µM | 

Compound | IC50 [1] | EC50 [2, 3] | EC50 ([2]; HePAD38, 144 h)
C[C@H](O)CNc1nc2c(s1)CN(C(=O)c1cc3ccccc3[nH]1)CC2 [Example 99, (2S)-1-{[5-(1H-indole-2-carbonyl)-4H,5H,6H,7H-[1,3]thiazolo[5,4-c]pyridin-2-yl]amino}propan-2-ol] | < 5 µM | < 1 µM | 
CC(C)OC(=O)[C@H](C)NP(=O)(OCCNc1nc2c(s1)CN(C(=O)c1cc3c(F)cc(F)cc3[nH]1)CC2)Oc1ccccc1 (stereo partly drawn) [Example 100, Propan-2-yl (2S)-2-{[(2-{[5-(4,6-difluoro-1H-indole-2-carbonyl)-4H,5H,6H,7H-[1,3]thiazolo[5,4-c]pyridin-2-yl]amino}ethoxy)(phenoxy)phosphoryl]amino}propanoate] | < 100 µM |  | 1 to 10 µM
O=C(c1cc2c(Cl)cc(F)cc2[nH]1)N1CCc2nc(NCC3CCOC3)sc2C1 (stereo not shown) [Example 101, 5-(4-chloro-6-fluoro-1H-indole-2-carbonyl)-N-[(oxolan-3-yl)methyl]-4H,5H,6H,7H-[1,3]thiazolo[5,4-c]pyridin-2-amine] | < 5 µM | < 1 µM | 
O=C(c1cc2c(F)cc(F)cc2[nH]1)N1CCc2nc(OCCO)sc2C1 [Example 102, 2-{[5-(4,6-difluoro-1H-indole-2-carbonyl)-4H,5H,6H,7H-[1,3]thiazolo[5,4-c]pyridin-2-yl]oxy}ethan-1-ol] | 5 to 10 µM | 1 to 10 µM | 
N#Cc1cc(F)cc2[nH]c(C(=O)N3CCc4nc(NCC5CCOC5)sc4C3)cc12 (stereo not shown) [Example 103, 5-(4-cyano-6-fluoro-1H-indole-2-carbonyl)-N-[(oxolan-3-yl)methyl]-4H,5H,6H,7H-[1,3]thiazolo[5,4-c]pyridin-2-amine] | 5 to 10 µM | < 1 µM | 
N#Cc1cccc2[nH]c(C(=O)N3CCc4nc(NCC5CCOC5)sc4C3)cc12 (stereo not shown) [Example 104, 5-(4-cyano-1H-indole-2-carbonyl)-N-[(oxolan-3-yl)methyl]-4H,5H,6H,7H-[1,3]thiazolo[5,4-c]pyridin-2-amine] | 5 to 10 µM | 1 to 10 µM | 
O=C(c1cc2c(F)c(F)c(F)cc2[nH]1)N1CCc2nc(NCC3CCOC3)sc2C1 (stereo not shown) [Example 105, 5-(4,5,6-trifluoro-1H-indole-2-carbonyl)-N-[(oxolan-3-yl)methyl]-4H,5H,6H,7H-[1,3]thiazolo[5,4-c]pyridin-2-amine] | < 5 µM | < 1 µM | 
O=C(c1cc2c(F)cc(F)c(F)c2[nH]1)N1CCc2nc(NCC3CCOC3)sc2C1 (stereo not shown) [Example 106, 5-(4,6,7-trifluoro-1H-indole-2-carbonyl)-N-[(oxolan-3-yl)methyl]-4H,5H,6H,7H-[1,3]thiazolo[5,4-c]pyridin-2-amine] | < 5 µM | < 1 µM | 
CC1Cc2nc(N)sc2CN1C(=O)c1cc2ccccc2[nH]1 (stereo not shown) [Example 107, 5-(1H-indole-2-carbonyl)-6-methyl-4H,5H,6H,7H-[1,3]thiazolo[5,4-c]pyridin-2-amine] | < 5 µM | < 1 µM | 
CC1c2sc(N)nc2CCN1C(=O)c1cc2ccccc2[nH]1 (stereo not shown) [Example 109, 5-(1H-indole-2-carbonyl)-4-methyl-4H,5H,6H,7H-[1,3]thiazolo[5,4-c]pyridin-2-amine] | < 100 µM | < 100 µM | 
CN(CC1CCOC1)c1nc2c(s1)CN(C(=O)c1cc3ccccc3[nH]1)CC2 (stereo not shown) [Example 110, 5-(1H-indole-2-carbonyl)-N-methyl-N-[(oxolan-3-yl)methyl]-4H,5H,6H,7H-[1,3]thiazolo[5,4-c]pyridin-2-amine] | < 100 µM | 1 to 10 µM | 
O=C(c1cc2c(F)cc(F)cc2[nH]1)N1CCc2nc(NCCO)sc2C1 [Example 111, 2-{[5-(4,6-difluoro-1H-indole-2-carbonyl)-4H,5H,6H,7H-[1,3]thiazolo[5,4-c]pyridin-2-yl]amino}ethan-1-ol] | < 5 µM | < 1 µM | 
O=C(c1cc2c(F)c(F)ccc2[nH]1)N1CCc2nc(NCC3CCOC3)sc2C1 (stereo not shown) [Example 112, 5-(4,5-difluoro-1H-indole-2-carbonyl)-N-[(oxolan-3-yl)methyl]-4H,5H,6H,7H-[1,3]thiazolo[5,4-c]pyridin-2-amine] | < 5 µM | < 1 µM | 
O=C(c1cc2ccc(Br)cc2[nH]1)N1CCc2nc(NCC3CCOC3)sc2C1 (stereo not shown) [Example 113, 5-(6-bromo-1H-indole-2-carbonyl)-N-[(oxolan-3-yl)methyl]-4H,5H,6H,7H-[1,3]thiazolo[5,4-c]pyridin-2-amine] | < 5 µM | < 1 µM | 
Cc1ccc(F)c2[nH]c(C(=O)N3CCc4nc(NCC5CCOC5)sc4C3)cc12 (stereo not shown) [Example 114, 5-(7-fluoro-4-methyl-1H-indole-2-carbonyl)-N-[(oxolan-3-yl)methyl]-4H,5H,6H,7H-[1,3]thiazolo[5,4-c]pyridin-2-amine] | 5 to 10 µM | < 1 µM | 
CCc1cccc2[nH]c(C(=O)N3CCc4nc(NCC5CCOC5)sc4C3)cc12 (stereo not shown) [Example 115, 5-(4-ethyl-1H-indole-2-carbonyl)-N-[(oxolan-3-yl)methyl]-4H,5H,6H,7H-[1,3]thiazolo[5,4-c]pyridin-2-amine] | < 5 µM | < 1 µM | 
